The source of these data is patent USRE40246E1, “Method for the suppression of viral growth” (John Hopkins University, priority 1994, dated 2008).

Molecules are shown by their SMILES. Several values for one entry are separate records, joined by “and”; a condition that tells them apart may be missing. Identical values can stand only once. Like-named read-outs stand apart in the source and are kept apart here.

One assay has as its system HSV-18m44-CV4r. The assay can be described thus: Drug sensitivity against ACV resistant strain of HSV-1. Type of assay: cell-based.
The subject of assay [1] is HSV-1. Nature of the assay: Topical treatment of HSV-1 infected skin of guinea pigs. Type of assay: in vivo. The conditions noted are these: guinea pig; for suppression of HSV-1 replication in infected skin: topical five times per day for five days, ABPS 2 and 4 mg/ml, tetramethoxyl NDGA 60 mg/ml, acyclovir 60 mg/ml. The procedure:
It is also noted that tetramethoxyl NDGA 4N has been used in an animal system, i.e. to treat HSV infected skin of guinea pigs.
Two male guinea pigs (350 gm body weight) were used in the guinea pig experiment. The back skin of the animal was shaved and equally divided into six patches. Each skin patch was pinched with seven-pin needles and HSV-1 suspension was applied topically to infect each punched area. Twenty-four hours after infection, three agents (ABPS, 2 mg/ml, ABPS 4 mg/ml, tetramethoxyl NDGA, 4N 60 mg/ml and acyclovir 60 mg/ml) were applied to the infected areas five times per day for five days. Picture (FIG. 8) was taken 96 hours following infection.

Assay [2] has as its system HSV-1. The assay can be described thus: Drug sensitivity against HSV-1 in Vero cells at different viral passages. The conditions noted are these: for IC50: Human alphaherpesvirus 1, Vero. Type of assay: cell-based. The text has this:
Virus which recovered from medium of each passage at IC50 drug concentration were used to infect the subsequent passage of the cells.

The next assay deals with HSV-Sm44-ACVg. The assay can be described thus: Drug sensitivity against ACV sensitive strain of HSV-1. Type of assay: cell-based. The conditions noted are these: Human alphaherpesvirus 1, read-out: IC50, HSV-Sm44-ACVg.
Assay [3] deals with Tat regulated transactivation (Tat-TRS) of HIV-1 LTR promoter. Nature of the assay: Secreted alkaline phosphatase (SEAP) assay for Tat transactivation in cotransfected COS cells. It is filed as cell-based. The conditions noted are these: for EC50: Human immunodeficiency virus 1, COS, 48 h; for Inhibition of Tat-induced SEAP expression: read at 30 minutes. From the text:
To screen for inhibitors for Tat regulated transactivation (Tat-TRS), the secreted placental alkaline phosphatase (SEAP) reporter gene is put under the control of HIV-1 LTR promoter in the plasmid pBC12HIV/SEAP. The Tat-coded activity is supplied by a second plasmid construct pBC12/CMV/t2. […] An inhibitor should cause reduction of the SEAP activity which is due to inhibition of the expression of the SEAP mRNA via transactivation of the HIV-1 LTR promoter by Tat protein (Tat-TRS).
For the SEAP assay, test materials were dissolved in 10% DMSO solution made in calcium/magnesium-free PBS. The suspension was centrifuged and the stock solution (10 mg/ml) was filter-sterilized using a Millex®-GS […] filter (Millipore). Appropriate dilutions of the stock solution were prepared in a final DMSO concentration of 0.2% in PBS to obtain the various concentrations of test compounds.
Briefly, a day before DNA transfection, Linbro® 24 flat bottom well of 17-mm diameter plates were pretreated with 0.5 ml sterile solution of 0.1% gelatin. The plates were kept in the hood for 1 hour (all transfection steps were performed in the hood, unless otherwise stated). The gelatin solution was aspirated and the plates were washed with 0.5 ml of IMDM supplemented with 10% fetal calf serum and antibiotics (complete medium). […] DNA transfection was performed at 30-50% cell confluency. The stock solution of the Transfectam reagent, DOGS, was prepared according to the manufacturer's advice at 1 mg/0.380 ml ([…] or 3.4 mM) in 10% (v/v) ethanol in distilled water.
The transfection cocktail consisted of two solutions prepared in sterile tubes: • a) Solution A contained a sterile 150 mM NaCl solution+plasmid DNAs (non selected/selected gene in 2:1 ratio): 0.35 μg of pBC12/HIV/SEAP per well+0.175 μg of pBC12/CMB/t2 (coding for Tat function) per well. • b) Solution B Contained an equal volume of 150 mM NaCl and a volume of Transfectame determined to be 6 times the total amount of DNAS. Solutions A and B were homogenized and immediately mixed.
Ten minutes were allowed for the reaction to proceed. Meanwhile, the growth medium was removed from the subconf luent COS cells and 300 μl (100 μl of complete IMDM+200 μl serum-free medium) were added to each well. The transfection cocktail was dispensed to the wells in equal volume. Control samples containing no DNA were similarly treated and received sterile 150 mM NaCl solution alone. All samples were incubated for 10 and 12 hours after which 700 μl of complete growth medium were added. Test compounds prepared in 5% DMSO/Ca-Mg-free PBS (for non-water-soluble materials) were immediately added at various concentrations to the wells. Drug-untreated control samples received 5% DMSO/PBS solution alone (final DMSO concentration of 0.2%). All samples were then incubated for an additional 48 hours after which 300 μl of each culture supernatant was removed for SEAP analysis.
Briefly, a 250-μl aliquot was removed from COS cell culture supernatants, heated at 65° C. for 5 minutes to selectively inactivate endogenous phosphatase (SEAP is heat stable) and centrifuged in a microfuge for 2 minutes. One hundred μl of 2×SEAP assay buffer (1.0 M diethanolamine, pH 9.8; 0.5 mM MgCl2; 10 mm L-homoarginine) were added to 100-μl aliquot of the samples. The solution was mixed and transferred into a 96-well flat-bottom culture dish (Corning). Twenty μl of pre-warmed substrate solution (120 mM p-nitrophenylphosphate dissolved in 1×SEAP assay buffer) were dispensed with a multipipeter into each well containing the reaction mixture. A405 of the reaction was read at 5-minute intervals at 37° C. for 60 minutes using an EL340i microplate reader (Bio-tek Instruments, Inc.) with 5-second automatic shakings before each reading. The change in absorbance was plotted against time in the standard assay of SEAP induction.

In a further assay the test system is uninfected CEM-SS cells. The assay can be described thus: Soluble-formazan (XTT) assay, viability of uninfected CEM-SS cells. The conditions noted are these: Homo sapiens, read-out: IC50, inhibitory or toxic concentration reducing XTT formazan production in uninfected cultures to 50%. Type of assay: cell-based. Background: Formazan colour is commonly taken as a measure of viable cells.

In another assay the test system is HIV-1. The assay can be described thus: microbe, parasite or virus in culture. The conditions noted are these: Human immunodeficiency virus 1, CEM-SS, read-out: EC50, concentration that protects XTT formazan production in infected culture to 50% of uninfected, untreated cells.
The next assay concerns Vero cells. Nature of the assay: Inhibition of growth of Vero cells. Type of assay: cell-based. The conditions noted are these: Chlorocebus sabaeus.
The test system of assay [4] is HSV-1. The assay can be described thus: Inhibition of HSV-1 replication in Vero cells. The conditions noted are these: Human alphaherpesvirus 1, Vero. Type of assay: cell-based.
The subject of the next assay is HSV-1 ICP4. Nature of the assay: Inhibition of HSV-1 ICP4 transactivation in Vero cells. It is filed as cell-based. The conditions noted are these: Human alphaherpesvirus 1, Vero.
The mark [5] stands for this setting: Human alphaherpesvirus 1, read-out: IC50, HSV-18m44-CV4r.
The mark [6] stands for this setting: read-out: IC50 against HSV-1 in Vero Cells, Passage 1.
Setting [7] is: read-out: IC50 against HSV-1 in Vero Cells, Passage 2.
The mark [8] stands for this setting: read-out: IC50 against HSV-1 in Vero Cells, Passage 3.
Where [9] appears, read: read-out: IC50 against HSV-1 in Vero Cells, Passage 4.
[10] abbreviates: read-out: IC50 against HSV-1 in Vero Cells, Passage 5.
[11] abbreviates: read-out: IC50 against HSV-1 in Vero Cells, Passage 10.
Where [12] appears, read: read-out: EC50 (concentration exhibiting 50% inhibition) of Tat regulated HIV transactivation, SEAP expression.
Where [13] appears, read: read-out: EC50 of Tat regulated HIV transactivation, SEAP expression.
Setting [14] is: Mal 4 at 9.5 μm, NDGA at 9.9 μm.
Where [15] appears, read: Mal 4 at 31.3 μm, NDGA at 32.6 μm.
The mark [16] stands for this setting: Mal 4 at 62.7 μm, NDGA at 65.2 μm.

As to `Nc1nc2c(ncn2COCCO)c(=O)[nH]1` [ACV, acyclovir, reference compound], the IC50 with HSV-18m44-CV4r (setting [5]) is 118 µM; with HSV-1 [2] (setting [6]), 7.5 µM; in the assay with HSV-1 [2] (setting [7]) it was 37.8 µM; in the assay with HSV-1 [2] (setting [8]), above 88.8 µM; in the assay on HSV-1 [2] (setting [9]), 138 µM; in the assay on HSV-1 [2] (setting [10]), above 220 µM. The IC50 in the assay with HSV-1 [2] (setting [11]) was 440 µM; in the assay with HSV-1 [2] (read-out: concentration required to inhibit HSV-1, 10th passage), 440 µM; in the assay with HSV-1 [2] (read-out: concentration required to inhibit HSV-1, first passage), 7.5 µM; with HSV-Sm44-ACVg, below 6.9 µM. Moreover, the “suppression of HSV-1 replication in infected skin” value with HSV-1 [1] is given as “effective”.

Turning to `COc1ccc(CC(C)C(C)Cc2ccc(O)c(O)c2)cc1O` (stereo not shown) [Mal 4, 1-(3,4-dihydroxyphenyl)-4-(3-hydroxy-4-methoxyphenyl)-2,3-dimethylbutane], the EC50 in assay [3] (setting [12]) is 8 µg/mL; in [3] (setting [13]) it was 25 µM; with HIV-1 it was 4.25 µg/mL and 13.4 µM. For the same molecule, the “Inhibition of Tat-induced SEAP expression” value in assay [3] (setting [14]) is reported as 13.6%; in assay [3] (setting [15]), 60.4%; in [3] (setting [16]) it was 92%; in assay [3] (Mal 4 at 95 μm, NDGA at 99 μm) it was 100%. Further, the IC50 with uninfected CEM-SS cells is 100 µg/mL and 325 µM.

Regarding `CC(Cc1ccc(O)c(O)c1)C(C)Cc1ccc(O)c(O)c1` (stereo not shown) [NDGA, 1,4-bis-(3,4-dihydroxyphenyl)-2,3-dimethylbutane], the results for the EC50 in assay [3] (setting [12]) and in assay [3] (setting [13]) were 6 µg/mL and 20 µM, respectively. Besides, the “Inhibition of Tat-induced SEAP expression” value in assay [3] (setting [14]) is reported as 17.0%; in assay [3] (setting [15]) it was 73.8%; in assay [3] (setting [16]), 88.1%; in assay [3] (Mal 4 at 95 μm, NDGA at 99 μm), 92.9%.

`COc1ccc(C[C@@H](C)[C@@H](C)Cc2ccc(OC)c(OC)c2)cc1OC` [Tetramethoxyl NDGA, tetramethoxyl nordihydroguaiaretic acid]: the IC50 is 6.9 µM in the assay with HSV-18m44-CV4r (setting [5]); 6.9 µM in the assay with HSV-18m44-CV4r (Human alphaherpesvirus 1, read-out: IC50 against acyclovir resistant strain (HSV-1 SM44-CV4r)); 142 µM with Vero cells; around 10 µM with HSV-1 [2] (read-out: IC50 against HSV-1, essentially the same from first passage to tenth passage, first to tenth passage in vero cells); 11.7 µM in the assay with HSV-1 [2] (setting [6]); 4.4 µM in the assay on HSV-1 [2] (setting [7]). Also, the IC50 in the assay with HSV-1 [2] (setting [8]) was determined as 8.2 µM; with HSV-1 [2] (setting [9]), 5.9 µM; in the assay with HSV-1 [2] (setting [10]), 9.9 µM; in the assay with HSV-1 [2] (setting [11]), 10 µM; with HSV-1 [4], 7.7 µM; with HSV-Sm44-ACVg, 6.9 µM. This molecule had an IC50 in the assay on HSV-1 ICP4 of 33 µM. Moreover, in the assay with Vero cells (4.37 μM), the inhibition (as a rule, the change of the read-out against control, counted positive when it falls) at 4.37 µM came out at 1.27%. The molecule also registered an inhibition at 8.75 µM with Vero cells (8.75 μM) of 3.18%. Besides, 17.5 µM produced 7.64% inhibition in the assay with Vero cells (17.5 μM). The molecule further had an inhibition at 35 µM with Vero cells (35 μM) of 7.64%. Besides, the inhibition at 70 µM is 9.55% in the assay with Vero cells (70 μM) and 68% in the assay with HSV-1 ICP4 (70 μM). Also, the inhibition at 140 µM in the assay on Vero cells (140 μM) was 44%. In addition, testing at 280 µM in the assay on Vero cells (280 μM) gave an inhibition of 79.6%. In addition, the “HSV-1 growth at infected skin areas” value with HSV-1 [1] (60 mg/ml, daily topical treatment, five days) was “eliminated HSV-1 growth completely”. The “suppression of HSV-1 replication in infected skin” value with HSV-1 [1] was “effective”. The “drug resistance of HSV virus toward the drug” value with HSV-1 [2] (following ten viral passages in vero cells) is “showed no drug resistance”. In the assay on HSV-1 [4] (0.437 μM), this molecule came in with an inhibition at 0.437 µM below 0%. In the assay on HSV-1 [4] (0.875 μM), this molecule had an inhibition at 0.875 µM below 0%. Moreover, in the assay with HSV-1 [4] (1.75 μM), the inhibition at 1.75 µM is below 0%. The molecule further came in with an inhibition at 3.5 µM in the assay with HSV-1 [4] (3.5 μM) of 20%. The same molecule gave an inhibition at 7 µM in the assay on HSV-1 [4] (7 μM) of 40%. Also, the inhibition at 14 µM with HSV-1 [4] (14 μM) amounted to 97.5%. In the assay with HSV-1 ICP4 (20 μM), this molecule returned an inhibition at 20 µM of 8%. Also, in the assay on HSV-1 ICP4 (30 μM), testing at 30 µM gave an inhibition of 30%. This molecule had an inhibition at 40 µM in the assay on HSV-1 ICP4 (40 μM) of 35%. Further, in the assay on HSV-1 ICP4 (50 μM), the inhibition at 50 µM worked out at 52%. The molecule further registered an inhibition at 60 µM with HSV-1 ICP4 (60 μM) of 64%. At 80 µM the inhibition in the assay on HSV-1 ICP4 (80 μM) was 78%.
